The subject of test [1] is ERBB receptors, HTR2A, and downstream signaling pathways. The test is described as follows: ERBBprofiler multiplexed barcoded assay, overall statements across all receptor batches and sensors. Conditions: PC12 cells, stimulation mix.
The next test concerns HTR2A NFAT. Put plainly: ERBBprofiler barcoded NFAT pathway sensor, HTR2A co-transfected. The note with it: for IC50: Rattus norvegicus, PC-12, 6 h, read-out: HTR2A NFAT IC50.
A further test deals with ERBB2/3 EGR1p. The test is described as follows: ERBBprofiler barcoded EGR1p pathway sensor, ERBB2/3 co-transfected. The note with it: read-out: ERBB2/3 EGR1p IC50.
Another test concerns ERBB4 EGR1p. The test is described as follows: ERBBprofiler barcoded EGR1p pathway sensor, ERBB4 co-transfected. The note with it: for IC50: Rattus norvegicus, PC-12, 6 h, read-out: ERBB4 EGR1p IC50; for EGR1p (ERBB4) activity EC50 (barcode): agonist dose response, PC12 cells, ERBB4 co-transfected, barcode readout.
Test [2] relates to ERBB4. The note with it: read-out: IC50_Literature, ERBB4; cell viability overexpressing ERBB4 variants; ref Chakroborty et al., 2022; cited from earlier work.
Test [3] deals with ERBB2. On the set-up: method as in Schaefer et al., 2007. Conditions: phospho-WB in NR6 cells; ref Schaefer et al., 2007; read-out: IC50_Literature, ERBB2; cited from earlier work.
Another test relates to ERK (MAPK). On the set-up: method as in Schaefer et al., 2007. The note with it: phospho-WB in NR6 cells; ref Schaefer et al., 2007; read-out: IC50_Literature, ERK (MAPK); cited from earlier work.
In another test the test system is ERBB4 NFAT. Put plainly: ERBBprofiler barcoded NFAT pathway sensor, ERBB4 co-transfected. It is filed as cell-based, Rattus norvegicus.
The test system of a further test is EGFR EGR1p. The test is described as follows: ERBBprofiler barcoded EGR1p pathway sensor, EGFR co-transfected. Conditions: read-out: EGFR EGR1p IC50.
The test system of a further test is ERBB3. The note with it: read-out: IC50_Literature, ERBB3; cited from earlier work.
The test system of test [4] is ERBB2. The note with it: read-out: IC50_Literature, ERBB2; cited from earlier work.
The next test concerns EGFR NFAT. Put plainly: ERBBprofiler barcoded NFAT pathway sensor, EGFR co-transfected. It is filed as cell-based, Rattus norvegicus.
The test system of a further test is HTR2A EGR1p. Put plainly: ERBBprofiler barcoded EGR1p pathway sensor, HTR2A co-transfected. Conditions: read-out: HTR2A EGR1p IC50.
The next test has as its system calcium. Put plainly: Fluo-4 AM calcium assay in PC12 cells. It is filed as cell-based, Rattus norvegicus. Conditions: stimulation mix.
For another test, the system named is CRE sensor. The test is described as follows: CRE sensor only luciferase assay in PC12 cells. It is filed as cell-based, Rattus norvegicus.
The next test deals with cAMP. Put plainly: GloSensor cAMP assay in PC12 cells. The format is cell-based, Rattus norvegicus. The note with it: Rattus norvegicus, PC-12, 0.25 h, constant stimulation mix, 15 min, cAMP increase.
Test [5] has as its system ERBB2. On the set-up: method as in La Monica et al., 2017. The note with it: phospho-WB in PC9/HER2c1 cells; ref La Monica et al., 2017; read-out: IC50_Literature, ERBB2; cited from earlier work.
Test [6] deals with ERBB4. On the set-up: method as in Cross et al., 2014. Conditions: commercial biochemical kinome panel (Millipore); ref Cross et al., 2014; read-out: IC50_Literature, ERBB4; cited from earlier work.
For test [7], the system named is EGFR. The note with it: read-out: IC50_Literature, EGFR; phospho-WB in Cos 7 cells; ref Floc'h et al., 2020; cited from earlier work.
The next test concerns the target NFAT (HTR2A). The test is described as follows: NFAT pathway sensor luciferase assay, HTR2A transfected. It is filed as cell-based, Rattus norvegicus. The note with it: agonist dose response, PC12 cells, luciferase readout. The procedure: (§1) 50,000 PC12 cells were seeded per 96-well onto poly-L-lysin (PLL)-coated plates and transfected the following day (day in vitro 1, DIV1) with assay plasmids using Lipofectamine 3000 (Thermo Fisher Scientific). For split TEV assays, plasmids (pcDNA3 or pTag4C backbone) encoding receptor-NTEV-tcs-GV, GRB2-SH2-CTEV (for ERBB receptors) or ARBB2-1-383-CTEV (for HTR2A) (all 10 ng/well), and the p10xUAS-luc2 reporter plasmid (10 ng/well) were used. For pathway assays, the receptor plasmids (15 ng/well) and pathway reporter plasmids (15 ng/well) pEGR1p-luc2 for monitoring MAPK signaling, pCRE-CMVmin-luc2 for monitoring cAMP/Ca^2+ signaling, or p6xNFAT-CMVmin-luc2 for Ca^2+ signaling were used. Transient transfections were conducted according to the manufacturer’s instructions. On DIV2, cells were starved in medium containing 1% FCS for 16 h. […] In the case of antagonist assays, compounds were added at increasing doses together with the stimulus. Cells were lysed in 1x passive lysis buffer (Promega) and subjected to a firefly luciferase assay using a self-made substrate for firefly luciferase.[100] Luciferase activity was analyzed in a Mithras LB 940 Multimode Microplate Reader (Berthold Technologies). All assays were run in 96-well plates using six replicates per condition.

Another test has as its target CRE (HTR2A). The test is described as follows: CRE pathway sensor luciferase assay, HTR2A transfected. The note with it: agonist dose response, PC12 cells, luciferase readout. It is filed as cell-based, Rattus norvegicus. The method, then: as §1
The test system of the next test is HTR2A CRE. The test is described as follows: ERBBprofiler barcoded CRE pathway sensor, HTR2A co-transfected. The note with it: read-out: CRE (HTR2A) activity EC50 (barcode); agonist dose response, PC12 cells, HTR2A co-transfected, barcode readout.
The subject of test [8] is CRE (cAMP/Ca2+ signaling). Put plainly: ERBBprofiler barcoded CRE sensor only (no receptor transfected). Conditions: Rattus norvegicus, PC-12, read-out: CRE EC50 (barcode).
The subject of a further test is ERBB2/3 CRE. The test is described as follows: ERBBprofiler barcoded CRE pathway sensor, ERBB2/3 co-transfected. Conditions: Rattus norvegicus, PC-12, 6 h, read-out: ERBB2/3 CRE IC50.
The test system of another test is EGFR CRE. Put plainly: ERBBprofiler barcoded CRE pathway sensor, EGFR co-transfected. Conditions: Rattus norvegicus, PC-12, 6 h, read-out: EGFR CRE IC50.
The target in another test is ERBB2/3 (Homo sapiens, UniProt P04626+P21860). Put plainly: ERBBprofiler barcoded split TEV assay, ERBB2/3.
Test [9] concerns the target EGFR (Homo sapiens, UniProt P00533). The test is described as follows: ERBBprofiler barcoded split TEV assay, EGFR.
A further test has as its target EGR1p (ERBB4). Put plainly: EGR1p pathway sensor luciferase assay, ERBB4 transfected. It is filed as cell-based, Rattus norvegicus. The note with it: agonist dose response, PC12 cells, luciferase readout. The procedure: as §1
Test [10] deals with EGR1p (MAPK signaling), EGFR. Put plainly: EGR1p pathway sensor luciferase assay, EGFR. It is filed as cell-based, Rattus norvegicus. Conditions: agonist dose response, PC12 cells, luciferase readout. The method, then: as §1
Test [11] has as its target EGR1p (MAPK/ERK signaling). The test is described as follows: ERBBprofiler barcoded EGR1p sensor only (no receptor transfected). Conditions: agonist dose response, PC12 cells, barcode readout.
The target in test [12] is T1, ERBB4 (Homo sapiens, UniProt Q15303). Put plainly: ERBBprofiler barcoded split TEV assay, ERBB4. The note with it: agonist dose response, PC12 cells, 6 h, split TEV, barcode readout.
T1 sequence (Q15303 26-1308): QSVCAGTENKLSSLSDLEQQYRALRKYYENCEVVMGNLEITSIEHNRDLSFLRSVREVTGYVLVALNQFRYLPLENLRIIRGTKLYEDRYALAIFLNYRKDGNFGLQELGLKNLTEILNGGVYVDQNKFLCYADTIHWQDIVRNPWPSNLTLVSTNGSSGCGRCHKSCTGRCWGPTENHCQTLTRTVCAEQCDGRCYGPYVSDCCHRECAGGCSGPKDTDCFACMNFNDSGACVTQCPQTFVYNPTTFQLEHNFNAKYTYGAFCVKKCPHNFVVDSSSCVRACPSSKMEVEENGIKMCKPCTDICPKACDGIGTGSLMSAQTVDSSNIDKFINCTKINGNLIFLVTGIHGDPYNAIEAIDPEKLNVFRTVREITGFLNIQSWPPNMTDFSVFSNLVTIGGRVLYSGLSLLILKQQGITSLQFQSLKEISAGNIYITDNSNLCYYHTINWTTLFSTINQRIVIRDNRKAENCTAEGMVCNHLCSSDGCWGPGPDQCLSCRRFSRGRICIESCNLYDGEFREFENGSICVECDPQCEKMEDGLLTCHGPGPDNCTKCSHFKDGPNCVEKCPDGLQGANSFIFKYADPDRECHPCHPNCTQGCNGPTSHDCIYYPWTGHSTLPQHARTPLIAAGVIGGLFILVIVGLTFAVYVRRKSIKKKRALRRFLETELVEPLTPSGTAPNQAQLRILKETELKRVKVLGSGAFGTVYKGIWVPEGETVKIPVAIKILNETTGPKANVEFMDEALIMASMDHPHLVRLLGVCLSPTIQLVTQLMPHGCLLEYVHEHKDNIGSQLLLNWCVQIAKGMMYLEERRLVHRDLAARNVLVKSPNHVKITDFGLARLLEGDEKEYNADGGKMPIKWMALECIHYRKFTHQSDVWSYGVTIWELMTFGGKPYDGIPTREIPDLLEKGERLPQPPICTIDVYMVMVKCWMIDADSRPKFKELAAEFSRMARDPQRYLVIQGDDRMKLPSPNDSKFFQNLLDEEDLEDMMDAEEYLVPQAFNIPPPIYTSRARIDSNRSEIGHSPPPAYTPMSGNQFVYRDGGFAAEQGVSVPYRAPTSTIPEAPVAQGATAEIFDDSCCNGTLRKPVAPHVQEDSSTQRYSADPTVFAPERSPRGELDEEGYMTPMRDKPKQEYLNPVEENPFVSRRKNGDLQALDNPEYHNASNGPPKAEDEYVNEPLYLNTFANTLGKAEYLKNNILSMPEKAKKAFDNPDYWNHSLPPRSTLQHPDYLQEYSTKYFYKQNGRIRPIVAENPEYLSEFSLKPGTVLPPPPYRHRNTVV
Test [13] has as its target T1, ERBB4. Put plainly: Split TEV firefly luciferase assay, ERBB4. The note with it: agonist dose response, PC12 cells, split TEV, luciferase readout. It is filed as cell-based. The procedure: as §1

Values joined by “and” are separate entries in the source; they are usually repeats but may differ in a detail not shown here. Identical values can stand only once. Counter-ions that a name gives are not always drawn. Like-named read-outs stand apart in the source and are kept apart here.

EGFR, sequence (P00533 25-1210): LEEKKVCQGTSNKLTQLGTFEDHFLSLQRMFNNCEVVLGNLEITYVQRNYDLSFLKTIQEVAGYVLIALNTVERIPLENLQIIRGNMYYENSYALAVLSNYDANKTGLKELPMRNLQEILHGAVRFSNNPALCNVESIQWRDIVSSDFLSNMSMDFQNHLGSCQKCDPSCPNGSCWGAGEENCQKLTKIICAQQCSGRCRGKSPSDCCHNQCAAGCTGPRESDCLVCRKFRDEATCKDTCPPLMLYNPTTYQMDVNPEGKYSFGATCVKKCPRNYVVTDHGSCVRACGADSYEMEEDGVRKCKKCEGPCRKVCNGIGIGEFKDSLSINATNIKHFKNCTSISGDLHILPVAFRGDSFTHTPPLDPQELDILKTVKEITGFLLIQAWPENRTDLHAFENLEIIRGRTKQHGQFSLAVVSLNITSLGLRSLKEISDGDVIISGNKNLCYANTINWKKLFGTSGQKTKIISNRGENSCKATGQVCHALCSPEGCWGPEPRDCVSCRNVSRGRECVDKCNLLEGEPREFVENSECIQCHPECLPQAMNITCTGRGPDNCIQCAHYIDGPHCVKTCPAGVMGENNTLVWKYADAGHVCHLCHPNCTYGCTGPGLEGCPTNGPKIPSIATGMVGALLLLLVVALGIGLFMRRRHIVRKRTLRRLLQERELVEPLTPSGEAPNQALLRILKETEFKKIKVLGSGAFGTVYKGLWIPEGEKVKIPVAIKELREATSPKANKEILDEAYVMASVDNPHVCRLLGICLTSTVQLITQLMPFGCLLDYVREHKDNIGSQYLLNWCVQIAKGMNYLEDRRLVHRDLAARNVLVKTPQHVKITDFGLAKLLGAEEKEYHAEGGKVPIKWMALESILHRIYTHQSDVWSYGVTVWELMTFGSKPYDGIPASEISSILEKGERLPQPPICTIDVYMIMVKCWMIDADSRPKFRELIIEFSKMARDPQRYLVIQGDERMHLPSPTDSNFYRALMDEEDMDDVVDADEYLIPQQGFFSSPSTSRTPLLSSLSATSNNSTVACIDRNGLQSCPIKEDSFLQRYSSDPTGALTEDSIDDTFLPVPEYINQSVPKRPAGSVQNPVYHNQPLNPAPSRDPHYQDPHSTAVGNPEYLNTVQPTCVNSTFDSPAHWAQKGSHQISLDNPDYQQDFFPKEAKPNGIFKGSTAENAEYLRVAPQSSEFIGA

With `C[C@]12CCC(=O)C=C1C=C[C@@H]1[C@@H]2CC[C@@]2(C)[C@H]1CC[C@@]21CCC(=O)O1` [Canrenone], the “CRE sensor response at high compound concentration (barcoded)” value in test [1] (10 μM compound) is “upregulated CRE sensor response”. In addition, the “inhibition of ERBB receptors and pathways (barcoded ERBBprofiler), in words” value in [1] is “did not inhibit any ERBB receptor nor pathway monitored”.
On to `C#Cc1cccc(Nc2ncnc3cc(OCCOC)c(OCCOC)cc23)c1` [Erlotinib, Erlotinib hydrochloride], for which the IC50 in the test with HTR2A NFAT is 98 nM; in the test on ERBB2/3 EGR1p (Rattus norvegicus, PC-12, 6 h), 304 nM; with ERBB4 EGR1p, 698 nM; in the test on ERBB4 [2], […]; in the test on ERBB2 [3], […]; in the test with ERK (MAPK), 160 to 290 nM. Further, the “ERBB4 NFAT IC50” value with ERBB4 NFAT was “no effect (EGFR, ERBB2/3, ERBB4), 0.098 µM (HTR2A, small effect)”.
Regarding `CS(=O)(=O)CCNCc1ccc(-c2ccc3ncnc(Nc4ccc(OCc5cccc(F)c5)c(Cl)c4)c3c2)o1` [Lapatinib, Lapatinib (GW-572016) Ditosylate], the IC50 with EGFR EGR1p (Rattus norvegicus, PC-12, 6 h) was 244 nM; with EGFR EGR1p, 122 nM and 122 to 244 nM; with ERBB3 it was […]; in the test with ERBB2 [4] it was […]; in the test with ERBB2/3 EGR1p (Rattus norvegicus, PC-12, 6 h), 41 nM; with ERBB2/3 EGR1p, 71 nM and 41 to 71 nM. Also, the IC50 was 45 nM in the test with HTR2A EGR1p (Rattus norvegicus, PC-12, 6 h); 34 nM and 34 to 45 nM in the test with HTR2A EGR1p. Further, in the test with EGFR NFAT, the “EGFR NFAT IC50” value is on record as “no effect (EGFR, ERBB2/3, ERBB4), 0.352 - 4.531 µM (HTR2A)”. The “ERBB4 NFAT IC50” value in the test on ERBB4 NFAT was “no effect (EGFR, ERBB2/3, ERBB4), 0.352 - 4.531 µM (HTR2A)”.
As for `C=CC(=O)Nc1cc(Nc2nccc(-c3cn(C)c4ccccc34)n2)c(OC)cc1N(C)CCN(C)C` [Osimertinib, Osimertinib (AZD9291)], the IC50 was 80 nM with EGFR EGR1p (Rattus norvegicus, PC-12, 6 h); 772 nM with HTR2A NFAT; 56 nM in the test on ERBB2/3 EGR1p (Rattus norvegicus, PC-12, 6 h); 37 nM with ERBB4 EGR1p; […] in the test on ERBB2 [5]; […] in the test with ERBB4 [6]. Further, the IC50 was […] with EGFR [7] and 109 nM in the test on HTR2A EGR1p (Rattus norvegicus, PC-12, 6 h). Also, the “effect on calcium levels (Fluo-4 AM)” value with calcium is “but not calcium levels”. Further, the “effect on CRE sensor activity (luciferase), in words” value in the test on CRE sensor (PC12 cells, CRE sensor only, stimulation mix) is “CRE sensor activation at high compound concentrations”. Moreover, the EC50 in the test on CRE sensor (Rattus norvegicus, PC-12) was 3.01 µM; in the test with cAMP, 3.91 µM. Moreover, the “EGFR NFAT IC50” value with EGFR NFAT is recorded as “no effect (EGFR, ERBB2/3, ERBB4) - 0.772 µM (HTR2A)”. Further, the “ERBB4 NFAT IC50” value with ERBB4 NFAT is “no effect (EGFR, ERBB2/3, ERBB4) - 0.772 µM (HTR2A)”.
With `NCCc1c[nH]c2ccc(O)cc12` [Serotonin, Serotonin hydrochloride], the EC50 is 61 nM at NFAT (HTR2A); 73 nM in the test with HTR2A NFAT (read-out: NFAT (HTR2A) activity EC50 (barcode), agonist dose response, PC12 cells, HTR2A co-transfected, barcode readout); 465 nM on CRE (HTR2A); 164 nM in the test with HTR2A CRE; 167 nM in test [8].
Consider `CC(=O)S[C@@H]1CC2=CC(=O)CC[C@]2(C)[C@H]2CC[C@@]3(C)[C@@H](CC[C@@]34CCC(=O)O4)[C@H]12` [Spironolactone], for which the IC50 in the test on ERBB2/3 CRE was 905 nM; in the test with ERBB4 EGR1p it was above 10000 nM; with EGFR CRE, 8.41 nM; against ERBB2/3, above 10 µM; against EGFR [9], above 10 µM.
As to “Heregulin-β1 (EGF Domain) human (EGF-like domain) [EGFld]”, the “EGR1p (ERBB4) activity EC50 (barcode)” value in the test with ERBB4 EGR1p is 0.607 ng/mL. Also, the “EGR1p (ERBB4) activity EC50 (luciferase)” value at EGR1p (ERBB4) came out at 0.384 ng/mL.
On to hEGF, for which the “EGR1p activity EC50 (luciferase)” value in [10] turned out to be 0.161 ng/mL. Also, in the test on ERBB4 EGR1p, the “EGR1p (ERBB4) activity EC50 (barcode)” value amounted to 0.093 ng/mL. Also, the “EGR1p activity EC50 (barcode)” value in [11] came to 0.089 ng/mL.

B1: Heregulin-β1 (EGF Domain) human (EGF-like domain) (protein)
chain: TSHLVKCAEKEKTFCVNGGECFMVKDLSNPSRYLCKCPNEFTGDRCQNYVMASFYKHLGIEFMEAEELYQK
modifications: three disulfides
notes: EGF-like domain, ligand for ERBB3 and ERBB4
Consider B1, for which the “ERBB4 activity EC50 (barcode)” value with ERBB4 [12] stood at 1.372 ng/mL. Besides, the “ERBB2/3 EC50 (barcode)” value with ERBB2/3 (agonist dose response, PC12 cells, 6 h, split TEV, barcode readout) amounted to 0.143 ng/mL. For the same molecule, the “ERBB4 activity EC50 (luciferase)” value with ERBB4 [13] is 0.700 ng/mL.

Usually EC50 stands for the concentration giving half of the maximal effect.

The values are drawn from publication PMC10831936 (iScience, 2024).
